Reference: US5994363A (priority 1998, dated 1999)
Where “and” joins values, the source holds several entries; their conditions need not be identical. Equal values may be shown once. Where a name gives a salt, the structure may show the parent alone.

Legend:
[1] = Duration of vomiting and retching in dog after daily subcutaneous apomorphine HCl (Example 1); assay type: in vivo
[2] = Number of dogs acclimatized to retching/vomiting; blood pressure and heart rate (Example 2); assay type: in vivo, dog
Description: This study provides a different view of data recorded in Example 1.
Observations were made at three different dosage levels, 0.04, 0.1 and 0.4 mg/kg/day. No dose escalation was attempted in this study. A group of five dogs was used for tests at each dosage level. The number of dogs in each dosage group with a retching or vomiting episode in each post-administration time period was recorded for daily administration over about 180 days. Ten day averages were calculated and plotted (see FIGS. 3 through 6).
The blood pressure and heart rates of an untreated group of dogs was evaluated for comparison purposes.

[3] = mouse, cited from earlier work
[4] = Take-home intercourse satisfaction, VAS questionnaire question 3 (Example 5, Phase III); assay type: in vivo, human; settings: for Satisfaction Percent Change from Baseline, LSMEAN / Satisfaction Percent Change from Baseline, MEAN: MALE
From the text: (§1) During the five-week, home-use phase, subjects were to attempt coitus at least once each week after taking a single APO tablet. After each attempt, the subject and their partner completed a Sexual Function questionnaire (See FIGS. 15 and 16) which was later evaluated and used for final statistical analysis.
(§2) For the third phase, subjects had recorded at baseline, their satisfaction,erection, number of attempts, and successful intercourse on a VAS scale (see Tables Xa-Xc, above). Evaluateable subjects first recorded a success rate, then completed VAS for erection results and satisfaction with intercourse following take-home treatment. The success rates, as shown in Tables XVa-XVb, below, were calculated for milligrams of APO as well as for micrograms per kilogram of the patient's body weight doses (males). There were four criteria for recording a success in the take-home phase. […] Several evaluations of the data were made including the male and female responses to treatments via questionnaires (see FIGS. 15 and 16).
Tables XVIIa--XVIId, below, show the statistical results of phase III with respect to Rigiscan™ results (a and b) and intercourse satisfaction (c and d) based on question 1 and question 3, respectively, from the completed questionnaires (see FIGS. 15 and 16). […] The maximum improvement from baseline were 56% in males and 59% in females. The mean improvement were 29% in males and 34% in females. […] The mean improvements were 34% in females and 45% in males.

[5] = single bolus subcutaneous injection, mammals; cited from earlier work
[6] = Adverse events in escalating dose tolerance study in psychogenic male erectile dysfunction (Example 5); assay type: in vivo, human
Description: Example 5-Summary. This clinical study was conducted in three phases. In Phase 1 subjects were selected from among patients complaining of impotence by a thorough physiological and psychological assessment. For example, one step in the assessment process required candidates to undergo Rigiscan measurement of penile rigidity and circumference following administration of a placebo tablet in single blind fashion. Phase 2 consisted of a dose escalation (4, 6, and 8 mg tablets) administered on 4 visits. An out-patient phase was conducted as Phase 3. Patients were given apomorphine HCL tablets to use at home.
Example-5 Detailed Description (Clinical Study #94-03-01). The human study was conducted in three separate phases. Phase 1 consisted of selecting appropriate subjects and obtaining baseline information on sexual performance for each subject.
They were tested on four separate days at four separate doses (placebo and three active medication doses) with an interval of no less than six days between visits (i.e., one visit per week).
If the trial was aborted, the patient was given the choice of having Gravol 50 mg p.o. (an anti-emetic) administered at that time or enduring the adverse events as they arose. In either event, the patient was monitored by the research clinician until all side-effects had subsided. The patient was asked to return the following week for the next scheduled dose.
as §1
The data was analyzed by an inspection of the reported adverse events, the given dose of apomorphine and the phase of the study, i.e., in-patient (dose escalating) or take-home (constant dose) phases.

[7] = 100-400 μg/kg, up to four days, primates; cited from earlier work
[8] = Side effects after subcutaneous, sublingual and oral apomorphine HCl in dog (Example 3)
[9] = Take-home sexual intercourse success rate (Example 5, Phase III); assay type: in vivo, human
From the text: as §1, §2

CN1CCc2cccc3c2[C@H]1Cc1ccc(O)c(O)c1-3 [apomorphine HCl]
time to acclimatization (retching and vomiting) ([1]; 0.4 mg/kg/day s.c.): about 10 days | effect of escalation on vomiting/retching ([1]; 0.8 mg/kg/day after 21 days at 0.4 mg/kg/day): no evidence of an increase in vomiting/retching | wash out period required to establish homeostasis ([1]; after CNS supersensitivity): 4 to 6 weeks | effect of increasing dose by 100% of the acclimation dose on duration ([1]; after acclimation established): no corresponding increase in the duration of retching and vomiting | movement disorders ([1]; dose reduced from 1.2 to 0.8 mg/kg/day): movement disorders were again observed | average duration of retching/vomiting period ([1]; following daily administration): about 5 minutes | average duration of retching/vomiting period ([1]; following initial dose): about 30 minutes | time to acclimatization (retching and vomiting) ([1]; lower doses (0.05 mg/kg start), s.c. daily): ≤ 3 days | effect of challenge on duration of vomiting ([1]; lower doses, after 12 days, dose 100% greater than acclimatized dose): Only a small increase in the duration of vomiting | daily treatment needed for 80 percent effective acclimation ([2]; 0.4 mg/kg/day s.c.): about 3 months | net changes in blood pressure ([2]; after 5 months chronic treatment, vs untreated controls): not significantly different from the controls | heart rate after administration ([2]; after 5 months chronic treatment, 0.04, 0.1, 0.4 mg/kg/day): tachycardia sometimes occurs | bradycardia ([2]; initially, lost by acclimation): badycardia was reported in some subjects | lethality at or above about 13 mg/kg ([3]; single bolus subcutaneous): reported lethal | LD50 [3]: > 50 mg/kg | Satisfaction (Maximum) Change from Baseline, LSMEAN ([4]; FEMALE, 4 mg, all sites): 41.86 | Satisfaction (Maximum) Change from Baseline, LSMEAN ([4]; FEMALE, 6 mg, all sites): 40.60 | Satisfaction (Maximum) Change from Baseline, LSMEAN ([4]; FEMALE, 8 mg, all sites): 62.33 | Satisfaction (Maximum) Change from Baseline, MEAN ([4]; FEMALE, all doses, site #1, #2, #3, #4, listed as APO): 57.00 and 37.75 and 33.29 | Satisfaction Percent Change from Baseline, LSMEAN ([4]; 4 mg, all sites): 49.14% | Satisfaction Percent Change from Baseline, LSMEAN ([4]; 6 mg, all sites): 51.47% | Satisfaction Percent Change from Baseline, MEAN ([4]; 6 mg, all sites, site #1, #2, #3, #4, listed as APO): 51.47% and 40.60% and 59.50% and 54.50% and 58.00% | Satisfaction Percent Change from Baseline, LSMEAN ([4]; 8 mg, all sites): 56.57% | Satisfaction Percent Change from Baseline, MEAN ([4]; all doses, b893 site #1, b897 #2, b901 #3, b905 #4, listed as APO): 58.00% and 48.50% and 49.56% and 50.00% | VAS satisfaction, mean improvement ([4]; females): 34% | VAS satisfaction, maximum improvement from baseline ([4]; females, 8 mg): 62% | VAS satisfaction, mean improvement ([4]; males): 45% | VAS satisfaction, maximum improvement from baseline ([4]; males, 8 mg): 57% | tolerated dose [5]: up to 13 mg/kg | Total Number of Adverse Events ([6]; Phase 2 (dose escalation), 4 mg/week): 31 | Total Number of Adverse Events ([6]; Phase 2 (dose escalation), 6 mg/week): 58 | Total Number of Adverse Events ([6]; Phase 2 (dose escalation), 8 mg/week): 50 | Total Number of Adverse Events ([6]; Phase 3 (out-patient), 4 mg): 15 | Total Number of Adverse Events ([6]; Phase 3 (out-patient), 6 mg): 13 | Total Number of Adverse Events ([6]; Phase 3 (out-patient), 8 mg): 8 | overall incidence of nausea ([6]; all administered doses): less than 13% | severe nausea cases ([6]; all doses): two | hypotension ([6]; also bradycardia, dizziness, syncope, pallor reported): reported as an adverse event in some subjects | Anti-Emetic In Patient, Total ([6]; in vivo): 8 | Anti-Emetic Take Home, Total ([6]; in vivo): 2 | In-Patient A.E.'s, Total ([6]; in vivo): 109 | Take-Home A.E.'s, Total ([6]; in vivo): 25 | decrease in adverse events per tablet ([6]; in vivo): ~95.6% | frequency of side effects ([6]; in vivo): 94.2% | incidence of vomiting ([6]; in vivo): less than 3% | increased sweating and fatigue ([6]; in vivo): also reported | severe hypotension and pallor ([6]; in vivo): Only single cases | severe increased sweating ([6]; in vivo): One of the cases | adverse effects of multiple doses [7]: without major adverse effects | Average Severity ([8]; oral 0.2 mg/kg): 0.00% | number of animals having nausea/vomiting ([8]; oral 0.2 mg/kg, 8 min, 4 animals per group): 0 | number of animals having nausea/vomiting ([8]; oral 0.2 mg/kg, 15 min): 0 | number of animals having nausea/vomiting ([8]; oral 0.2 mg/kg, 30 min): 0 | Average Severity ([8]; subcutaneous 0.04 mg/kg): 150.00% | number of animals having nausea/vomiting ([8]; subcutaneous 0.04 mg/kg, 8 min, 4 animals per group): 4 | number of animals having nausea/vomiting ([8]; subcutaneous 0.04 mg/kg, 15 min): 2 | number of animals having nausea/vomiting ([8]; subcutaneous 0.04 mg/kg, 30 min): 0 | Average Severity ([8]; sublingual 0.2 mg/kg): 50.00% | number of animals having nausea/vomiting ([8]; sublingual 0.2 mg/kg, 8 min, 4 animals per group): 0 | number of animals having nausea/vomiting ([8]; sublingual 0.2 mg/kg, 15 min): 1 | number of animals having nausea/vomiting ([8]; sublingual 0.2 mg/kg, 30 min): 1 | Sexual Intercourse Success Rate ([9]; Female, 6 mg, listed as APO): 73.3% and 73% | Sexual Intercourse Success Rate ([9]; Female, 35-50 μg/kg): 60.0% | Sexual Intercourse Success Rate ([9]; Female, 50-74 μg/kg, listed as APO): 82% | Sexual Intercourse Success Rate ([9]; Female, Overall): 70.0% | Sexual Intercourse Success Rate ([9]; Male, 6 mg, listed as APO): 73.3% and 73% | Sexual Intercourse Success Rate ([9]; Male, 35-50 μg/kg): 80.0% | Sexual Intercourse Success Rate ([9]; Male, 50-74 μg/kg, listed as APO): 73% | Sexual Intercourse Success Rate ([9]; Male, Overall): 70.0% | overall success rate ([9]; whole study, baseline rate 28%, listed as APO): 70% and 72%
